# Measurements: US20110039721A1, “METHOD FOR PREDICTION ABOUT CARCINOGENICITY OF SUBSTANCE IN RODENT” (Chemicals Evaluation and Research Institute, priority 2007, published 2011)
# Assays:
# [1] = system: mRNA expressed from the genes (A) to (D) in rat liver; assay: Behavior of genes (mRNA expression level, oligo-DNA microarray) in rat liver after 28-day oral administration; type: in vivo; details: mRNA vs vehicle control group
# In short: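 Male F344 SPF rats, 5 weeks old, four per group, dosed by oral gavage once daily for 28 days with test chemical or matched-volume solvent. Liver total RNA profiled on oligo-DNA microarray. Change ≥1.5-fold or ≤1/1.5 versus vehicle counted as significant if its direction matched that seen with other carcinogens.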
# rodent = details: in vivo; cited from earlier work
# [2] = classification of the substance (M+/M−); cited from earlier work
# liver = details: in vivo; cited from earlier work
# [3] = gene group (A), Unigene No. Rn.167075
# [4] = gene group (C), Unigene No. Rn.120914
structure (smiles),measurement,setting,value
"Cc1c2ccccc2c(C)c2c1ccc1ccccc12 [TS047, 7,12-Dimethylbenz [a]anthracene]","Behavior of gene caused by administration of chemical substance, Gene No. 4846","[1]; gene group (A), Unigene No. Rn.144554",−
same,"Behavior of gene caused by administration of chemical substance, Gene No. 2026",[1]; [3],−
same,"Behavior of gene caused by administration of chemical substance, Gene No. 4218",[1]; [3],−
same,"Behavior of gene caused by administration of chemical substance, Gene No. 6182","[1]; gene group (A), Unigene No. Rn.5834",−
same,"Behavior of gene caused by administration of chemical substance, Gene No. 5600","[1]; gene group (A), Unigene No. Rn.9836",−
same,"Behavior of gene caused by administration of chemical substance, Gene No. 1494","[1]; gene group (B), Unigene No. Rn.1430",−
same,"Behavior of gene caused by administration of chemical substance, Gene No. 2045","[1]; gene group (B), Unigene No. Rn.19329",−
same,"Behavior of gene caused by administration of chemical substance, Gene No. 2203","[1]; gene group (B), Unigene No. Rn.21240",−
same,"Behavior of gene caused by administration of chemical substance, Gene No. 533","[1]; gene group (C), Unigene No. Rn.106184",−
same,"Behavior of gene caused by administration of chemical substance, Gene No. 725","[1]; gene group (C), Unigene No. Rn.108075",+
same,"Behavior of gene caused by administration of chemical substance, Gene No. 1163","[1]; gene group (C), Unigene No. Rn.11766",+
same,"Behavior of gene caused by administration of chemical substance, Gene No. 4973","[1]; gene group (C), Unigene No. Rn.118529",−
same,"Behavior of gene caused by administration of chemical substance, Gene No. 4095","[1]; gene group (C), Unigene No. Rn.119024",−
same,"Behavior of gene caused by administration of chemical substance, Gene No. 1334",[1]; [4],−
same,"Behavior of gene caused by administration of chemical substance, Gene No. 6620",[1]; [4],−
same,"Behavior of gene caused by administration of chemical substance, Gene No. 6303","[1]; gene group (C), Unigene No. Rn.123063",−
same,"Behavior of gene caused by administration of chemical substance, Gene No. 5878","[1]; gene group (C), Unigene No. Rn.143213",−
same,"Behavior of gene caused by administration of chemical substance, Gene No. 1131","[1]; gene group (C), Unigene No. Rn.144946",−
same,"Behavior of gene caused by administration of chemical substance, Gene No. 1562","[1]; gene group (C), Unigene No. Rn.14744",−
same,"Behavior of gene caused by administration of chemical substance, Gene No. 1741","[1]; gene group (C), Unigene No. Rn.1647",−
same,"Behavior of gene caused by administration of chemical substance, Gene No. 893","[1]; gene group (C), Unigene No. Rn.164817",−
same,"Behavior of gene caused by administration of chemical substance, Gene No. 6026","[1]; gene group (C), Unigene No. Rn.167685",−
same,"Behavior of gene caused by administration of chemical substance, Gene No. 154","[1]; gene group (C), Unigene No. Rn.185941",−
same,"Behavior of gene caused by administration of chemical substance, Gene No. 1993","[1]; gene group (C), Unigene No. Rn.18728",−
same,"Behavior of gene caused by administration of chemical substance, Gene No. 813","[1]; gene group (C), Unigene No. Rn.201760",−
same,"Behavior of gene caused by administration of chemical substance, Gene No. 2494","[1]; gene group (C), Unigene No. Rn.23969",−
same,"Behavior of gene caused by administration of chemical substance, Gene No. 2546","[1]; gene group (C), Unigene No. Rn.24561",−
same,"Behavior of gene caused by administration of chemical substance, Gene No. 3776","[1]; gene group (C), Unigene No. Rn.43232",−
same,"Behavior of gene caused by administration of chemical substance, Gene No. 3929","[1]; gene group (C), Unigene No. Rn.4620",−
same,"Behavior of gene caused by administration of chemical substance, Gene No. 1119","[1]; gene group (C), Unigene No. Rn.9757",−
same,"Behavior of gene caused by administration of chemical substance, Gene No. 6742","[1]; gene group (C), Unigene No. Rn.9779",−
same,"Behavior of gene caused by administration of chemical substance, Gene No. 5634","[1]; gene group (C), Unigene No. Rn.9862",−
same,"Behavior of gene caused by administration of chemical substance, Gene No. 5726","[1]; gene group (D), Unigene No. Rn.9939",+
same,Carcinogenicity,rodent,C+
same,Mutagenicity by Ames test,[2],M+
same,Liver carcinogenicity,liver,Cr−
